Laboratory results from patent US11787850B2, “Peptidic TGF-beta antagonists” (priority 2015, dated 2023).

Test system: TGF-β1-induced PAI-1 protein production in A431 cells
Test: Western blot for PAI-1 in A431 cells
Format: cell-based
Settings: for inhibition of TGF-β1-induced PAI-1 protein production, peptide treated with DMSO / inhibition of TGF-β1-induced PAI-1 protein production, peptide in Tris left untreated: 100 pM TGF-β1, 18 hours; for inhibition of TGF-β1-induced PAI-1 protein production, peptide treated with DMSO: 0.5% DMSO (FIG. 9); for inhibition of TGF-β1-induced PAI-1 protein production, peptide in Tris left untreated: no DMSO (FIG. 9)
Experimental: FIG. 7 illustrates that the small molecular weight CD109-based peptide P16 (but not P11 or P16-1) inhibits TGF-β1-induced PAI-protein production. A431 cells were treated without (lane 1) or with 100 pM of TGF-β1 (lanes 2-6) in the absence (lane 2) or presence of 10 nM of P11 (11 aa peptide, lane 3), P16 (16 aa peptide, lane 4), P16-1 (scrambled peptide of 16 aa, lane 5) or Tris buffer (buffer, lane 6) for 24 hrs. Cell lysates were analyzed by Western blot for PAI-1 ([…]) protein levels and normalized to GAPDH protein levels (loading control). In the conditions tested, P16 (but not P11) inhibited TGF-β1-induced PAI-1 expression.
A431 cells were treated for 18 hours without (−) or with (+) 100 pM TGF-β1 in the presence or absence of Peptide X or P16. The peptides were previously dissolved in Tris buffer and left untreated or treated with DMSO prior to addition to the cells. Cell lysates were analyzed by Western blot for PAI-1 (plasminogen activator inhibitor-1) protein expression (top panel) and GAPDH served as a loading control (bottom panel). PAI-1 was not detected in untreated cells (lane 1).
A431 cells were grown in 6-well plates to 70-80% confluency and serum-starved overnight. Cells were washed with PBS and treated with or without TGF-β1 in presence or absence of various CD109-based peptides as indicated in the figure legends. Cells were solubilized with 500 μl of lysis buffer (50 mM Tris, pH 7.5, 150 mM NaCl, 50 mM NaF, 50 mM β-glycerophosphate, 1 mM sodium orthovanadate, 1 mM dithiothreitol, 5 mM EDTA, pH 8.0, 1% Nonidet P-40, 10% glycerol, 10 μM phenylmethylsulfonyl fluoride, 200 μg/ml bovine serum albumin, 1 μg/ml leupeptin, […] soybean trypsin inhibitor, 10 μg/ml benzamide, and 2 μg/ml pepstatin) for 30 min at 4° C. with mild agitation. Cell lysates were collected and centrifuged for 10 min at 10,000×g. The supernatants were collected and protein concentrations were determined using the Bio-Rad protein assay kit. Lysates containing equivalent protein concentrations were mixed with 0.2 volume of 5× electrophoresis sample buffer containing 5% β-mercaptoethanol and boiled for 5 min. Samples were resolved on 7.5% SDS-polyacrylamide gels and transferred to nitrocellulose membranes. Membranes were blocked for 3 h in blocking buffer (30 mM Tris, pH 7.5, 150 mM NaCl, and 0.05% (w/v) Tween 20™ (Tris-buffered saline/Tween) containing 5% (w/v) skim milk powder). The blot was incubated overnight at 4° C. with a 1:1000 dilution of anti-PAI-1 antibody (BD Biosciences). Blots were washed with Tris-buffered saline/Tween and incubated for 45 min at room temperature with a 1:5000 dilution of secondary antibody conjugated to horseradish peroxidase (Pierce). Chemiluminescence detection of the immune complexes was performed using the ECL system (Amersham Biosciences) according to the manufacturer's instructions. The membranes were stripped and reprobed with an anti-GAPDH antibody to confirm equal protein loading.
A431 cells were treated without (lane 1) or with 100 pM of TGF-β1 (lanes 2-6) in the absence (lane 2) or presence of 10 nM of P11 (11 aa peptide, lane 3), P16 (16 aa peptide, lane 4), P16-1 (scrambled peptide of 16 aa, lane 5) or Tris buffer (buffer, lane 6) for 24 hrs. Cell lysates were analyzed by Western blot for PAI-1 ([…]) protein levels and normalized to GAPDH protein levels (loading control).
A431 squamous cell carcinoma cells were treated for 18 hours without (−) or with (+) 100 pM TGF-β1 in the presence or absence of Peptide X or P16. The peptides were dissolved in Tris buffer and left untreated or treated with 0.5% DMSO prior to addition to the cells. Cell lysates were analyzed by Western blot for PAI-1 ([…]) protein expression (top panel) and GAPDH served as a loading control (bottom panel).

Sequence | inhibition of TGF-β1-induced PAI-1 protein production, peptide treated with DMSO | inhibition of TGF-β1-induced PAI-1 protein production, peptide in Tris left untreated | inhibition of TGF-β1-induced PAI-1 protein production (10 nM peptide, 100 pM TGF-β1, 24 hrs (FIG. 7))
ETWIWLDTNMGSRIYQ [Peptide P16] | did not enhance | inhibited | inhibited
LGSSPHVRKHFPETWIWLDTNMGSRIYQEFEVTVPDSITS (Peptide X) | inhibited | did not | –
